Some results are limits rather than exact numbers.

The values that follow come from patent US7220769B2, “Azolylbenzamides and analogues and their use for treating osteoporosis” (Nikem Research S.R.L., priority 1999, dated 2007).

Series [1] deals with osteoclast proton pump. The note with it: membrane vesicles from avian osteoclasts, ATP-driven acidification, acridine orange quench; cited from earlier work.
The subject of series [2] is osteoclast cultures. The note with it: cited from earlier work.

Broadly, the melting point is the temperature of the solid-liquid transition. The molecule `CN1C(C)(C)CC(NC(=O)c2ccc(-c3nc4cc(Cl)c(Cl)cc4[nH]3)cc2)CC1(C)C` [Example 1, 4-(5,6-Dichlorobenzimidazol-2-yl)-N-(1,2,2,6,6-pentamethylpiperidin-4-yl)benzamide] registered a melting point of more than 280 °C.

In the case of `CO/C1=C\C(C)=C\[C@@H](C)[C@@H](O)[C@@H](C)C/C(C)=C/C=C/[C@H](OC)[C@@H]([C@@H](C)[C@@H](O)[C@H](C)[C@@]2(O)C[C@@H](O)[C@H](C)[C@@H](C(C)C)O2)OC1=O` [bafilomycin A1], the “proton transport inhibited / not inhibited” value in series [1] was “inhibited”. In series [2], the inhibit bone resorption result was “able to inhibit bone resorption”.

In turn, `COc1cc(C(=O)NC2CC(C)(C)N(C)C(C)(C)C2)ccc1-c1nc2cc(Cl)c(Cl)cc2n1C` [Example 5, 4-(5,6-Dichloro-1-methylbenzimidazol-2-yl)-N-(1,2,2,6,6-pentamethylpiperidin-4-yl)-3-methoxybenzamide] registered a melting point of 178 to 180 °C.

Turning to `CCOc1cc(C(=O)Nc2cccnc2)ccc1-c1nc2cc(Cl)c(Cl)cc2[nH]1` [Example 15, 4-(5,6-Dichlorobenzimidazol-2-yl)-N-(3-pyridyl)-3-ethoxybenzamide], the melting point is more than 260 °C.

Consider `Cc1nc2c(OCc3ccccc3)cccn2c1CC#N` [SCH 28080], for which the “proton transport inhibited / not inhibited” value in series [1] is on record as “not inhibited”.

As for `CCOc1cc(C(=O)NC2CC(C)(C)NC(C)(C)C2)ccc1-c1nc2cc(Cl)c(Cl)cc2[nH]1` [Example 6, 4-(5,6-Dichlorobenzimidazol-2-yl)-N-(2,2,6,6-tetramethylpiperidin-4-yl)-3-ethoxybenzamide], the melting point was more than 280 °C.

Consider `COc1cc(C(=O)NC2CC(C)(C)N(C)C(C)(C)C2)ccc1-c1nc2cc(Cl)c(Cl)cc2[nH]1` [Example 4, 4-(5,6-Dichlorobenzimidazol-2-yl)-N-(1,2,2,6,6-pentamethylpiperidin-4-yl)-3-methoxybenzamide], for which the melting point lay within 285 to 286 °C.

Molecule `CCOc1cc(C(=O)NC2CC(C)(C)NC(C)(C)C2)ccc1-c1nc2ccc(Cl)cc2[nH]1` [Example 19, 4-(5-Chlorobenzimidazol-2-yl)-N-(2,2,6,6-tetramethylpiperidin-4-yl)-3-ethoxybenzamide] returned a melting point of 222 to 225 °C.

`COc1cc(C(=O)NCCCN2CCN(c3ncccn3)CC2)ccc1-c1nc2cc(Cl)c(Cl)cc2[nH]1` [Example 7, 4-(5,6-Dichlorobenzimidazol-2-yl)-N-[3-[4-(2-pyrimidinyl)piperazin-1-yl]propyl]-3-methoxybenzamide] displayed a melting point of 255 to 258 °C.

Consider `COc1cc(C(=O)NC2CC(C)(C)NC(C)(C)C2)ccc1-c1nc2cc(Cl)c(Cl)cc2[nH]1` [Example 10, 4-(5,6-Dichlorobenzimidazol-2-yl)-N-(2,2,6,6-tetramethylpiperidin-4-yl)-3-methoxybenzamide], for which the melting point lay in the range of 233 to 235 °C.

Turning to `CN1C(C)(C)CC(NC(=O)c2ccc(-c3nc4cc(Cl)c(Cl)cc4[nH]3)c(O)c2)CC1(C)C` [Example 3, 4-(5,6-Dichlorobenzimidazol-2-yl)-N-(1,2,2,6,6-pentamethylpiperidin-4-yl)-3-hydroxybenzamide], the melting point is more than 250 °C.

In the case of `CCOc1cc(C(=O)NCCCO)ccc1-c1nc2cc(Cl)c(Cl)cc2[nH]1` [Example 16, 4-(5,6-Dichlorobenzimidazol-2-yl)-N-(3-hydroxypropyl)-3-ethoxybenzamide], the melting point was 148 to 150 °C.

Regarding `[Na+].[Na+].[Na+].[O]=[V]([O-])([O-])[O-]` [sodium orthovanadate], the “proton transport inhibited / not inhibited” value in series [1] is on record as “not inhibited”.

In turn, `CN1C(C)(C)CC(NC(=O)c2ccc(-c3nc4cc(Cl)ccc4[nH]3)cc2)CC1(C)C` [Example 2, 4-(5-Chlorobenzimidazol-2-yl)-N-(1,2,2,6,6-pentamethylpiperidin-4-yl)-benzamide] displayed a melting point of more than 250 °C.

In turn, `Cc1cc(C(=O)NC2CC(C)(C)NC(C)(C)C2)ccc1-c1nc2cc(Cl)c(Cl)cc2[nH]1` [Example 13, 4-(5,6-Dichlorobenzimidazol-2-yl)-N-(2,2,6,6-tetramethylpiperidin-4-yl)-3-methylbenzamide] registered a melting point of more than 250 °C.

The molecule `O=C(NCCCN1CCN(c2ncccn2)CC1)c1ccc(-c2nc3cc(Cl)c(Cl)cc3[nH]2)c(O)c1` [Example 8, 4-(5,6-Dichlorobenzimidazol-2-yl)-N-[3-[4-(2-pyrimidinyl)piperazin-1-yl]propyl]-3-hydroxybenzamide] displayed a melting point of 258 to 260 °C.

Take `C[C@@H]1O[C@@H](O[C@H]2C[C@@H](O)[C@]3(CO)[C@H]4[C@H](O)C[C@]5(C)[C@@H](C6=CC(=O)OC6)CC[C@]5(O)[C@@H]4CC[C@]3(O)C2)[C@H](O)[C@H](O)[C@H]1O` [ouabain]: the “proton transport inhibited / not inhibited” value in series [1] is given as “not inhibited”.

As for `COc1cc(-c2nc3cc(Cl)c(Cl)cc3[nH]2)c(OC)cc1C(=O)NC1CC(C)(C)N(C)C(C)(C)C1` [Example 17, 4-(5,6-Dichlorobenzimidazol-2-yl)-N-(1,2,2,6,6-pentamethylpiperidin-4-yl)-2,5-dimethoxybenzamide], the melting point was more than 250 °C.

Turning to `COc1cc(-c2nc3cc(Cl)c(Cl)cc3[nH]2)c(OC)cc1C(=O)NC1CC(C)(C)NC(C)(C)C1` [Example 18, 4-(5,6-Dichlorobenzimidazol-2-yl)-N-(2,2,6,6-tetramethylpiperidin-4-yl)-2,5-dimethoxybenzamide], the melting point was more than 250 °C.

With `CCN1C(=O)C=CC1=O` [N-ethylmaleimide], in series [1], the “proton transport inhibited / not inhibited” value is “inhibited”.

`COc1cc(C(=O)N(C)C2CC(C)(C)NC(C)(C)C2)ccc1-c1nc2cc(Cl)c(Cl)cc2[nH]1` [Example 11, 4-(5,6-Dichlorobenzimidazol-2-yl)-N-(2,2,6,6-tetramethylpiperidin-4-yl)-N-methyl-3-methoxybenzamide] registered a melting point of 240 to 242 °C.
